Assay results: US11299506B2, “Acylnucleoside phosphonates, prodrugs thereof and use thereof as medicament” (UNIVERSITE DE MONTPELLIER, priority 2017, dated 2022)
Like-named read-outs stand apart in the source and are kept apart here.

Legend:
[1] = tested on: Plasmodium falciparum (strain 3D7); assay: In vitro anti-Plasmodium falciparum activity (infected erythrocytes, radioactive precursor incorporation); assay type: cell-based
Description: After 48 h of incubation in the absence (control) or in the presence of the compound to be tested, the radioactive precursor is added, and the reaction is continued for another 18 h, then stopped by freezing at −80° C. The macromolecules, including the radiolabeled nucleic acids, are collected on a filter. The incorporated radioactivity is measured with the scintillation counter after addition of scintillation cocktail. The radioactive background noise is measured based on a suspension of healthy erythrocytes (same conditions as for parasite-containing suspensions). The viability of the parasites is expressed as a (nonspecific derived) percentage of the control. […] The IC50 values thus determined are the result of at least two experiments carried out independently in duplicate. Batches A and B correspond to two different syntheses according to the same procedure and carried out in their totality by two different operators, at a six month interval.

K562 cells = assay: Toxicity with respect to K562 cells ([3H]-thymidine incorporation); assay type: cell-based, human; conditions: 3H-thymidine detection; Batch B; 24 h incubation; read-out: Activity against the K562 cells, 3H-Thymidine, Batch B IC50
Description: Suspensions of human cells (8000 cells per well) are cultured in complete RPMI medium (RPMI 1640 medium, L-glutamine, penicillin/streptomycin and 10% fetal calf serum) (200 μL) either in the absence of the compound to be tested (controls), or in contact with variable concentrations of said compound.
After 24 h of incubation (or approximately one cell cycle), 0.7 μCi of [^3H]-thymidine (radiolabeled precursor of the synthesis of the nucleic acids) diluted in 30 μL of complete RPMI medium are added to each well. After 6 h of additional incubation, the thymidine incorporation reaction is stopped by freezing at −80° C. As for the determination of the in vitro anti-malarial activity, the macromolecules, including the radiolabeled nucleic acids, are collected on a filter. The incorporated radioactivity is measured with the scintillation counter after addition of scintillation cocktail.
The radioactive background noise is measured based on complete RPMI medium. The viability of the cells is expressed as a (nonspecific derived) percentage of the control. The measurements are analyzed using Excel and Prism software, and the IC50 (concentration capable of in vitro inhibition of 50% of the growth of the cells) is determined graphically.
The IC50 values thus determined are the result of at least two experiments performed independently in duplicate.

Babesia divergens = assay: In vitro anti-Babesia divergens activity (infected erythrocytes, [3H]-hypoxanthine incorporation); assay type: cell-based; conditions: 16 h contact, read-out: Activity against Babesia divergens IC50
Description: After 16 h of incubation in the absence (control) or in the presence of the compound, the radioactive precursor is added and the reaction is continued for another 8 h and then stopped by freezing at −80° C. As for the determination of the in vitro anti-parasitic activity, the macromolecules, including the radiolabeled nucleic acids, are collected on a filter. The incorporated radioactivity is measured with the scintillation counter after addition of scintillation cocktail. The radioactive background noise is measured based on a suspension of healthy erythrocytes (same conditions as for the parasite-containing suspensions). The viability of the parasites is expressed as a (nonspecific derived) percentage of the control. […] The IC50 values thus determined are the result of at least two experiments performed independently in duplicate.

Toxoplasma gondii = assay: In vitro anti-toxoplasmosis activity by plaque assay on HFF fibroblast monolayer; assay type: cell-based; conditions: 7 days, average of 2 values
Description: This test is based on the capability of Toxoplasma gondii in its intracellular form (tachyzoite) to bring about the lysis of its host cell (here a monolayer of fibroblasts) and to then infect the neighboring cells so that over time (days) a macroscopically visible hole in the monolayer of cells becomes apparent and its area can be measured. In the 24-well culturing plates, approximately 80 parasites are added to a monolayer of fibroblasts (HFF cells) for 7 days in the presence or absence of drug. The cells are then fixed with 4% paraformaldehyde, and then stained with Giemsa. The cells are visualized under the microscope, and the size of the lysis plaques is measured using the software Zen® (Zeiss). The cells are maintained in culture in complete medium (DMEM+5% fetal calf serum+glutamine+penicillin/streptomycin). The ability of the drug to inhibit the growth of Toxoplasma gondii is proportional to the decrease in the size of the lysis plaque.
The results obtained are collected in Table 4 (average of 2 values) below and in FIG. 1.

[2] = read-out: Activity against P. falciparum (3D7), detection 3H-Hypoxanthine, Batch B IC50
[3] = Plasmodium falciparum, 3D7, Erythrocyte, 3H-ethanolamine detection, Batch A, 48 h contact, read-out: Activity against P. falciparum (3D7), detection 3H-Ethanolamine, Batch A IC50
[4] = Plasmodium falciparum, 3D7, Erythrocyte, 3H-hypoxanthine detection, Batch A, 48 h contact, read-out: Activity against P. falciparum (3D7), detection 3H-Hypoxanthine, Batch A IC50
[5] = read-out: Activity against P. falciparum (3D7), detection 3H-Ethanolamine, Batch A IC50
[6] = read-out: Activity against P. falciparum (3D7), detection 3H-Hypoxanthine, Batch A IC50

IC50 [1, 4] [µM] | IC50 (Babesia divergens; Babesia divergens, Erythrocyte) [µM] | Compound | IC50 [1, 5] [µM] | IC50 [1, 6] [µM] | further results
 |  | CCN(CC)CCCC(C)Nc1ccnc2cc(Cl)ccc12 (stereo not shown) [Chloroquine, reference compound] |  |  | IC50 ([1]; Plasmodium falciparum, 3D7, Erythrocyte, read-out: Activity against P. falciparum (3D7), detection 3H-Ethanolamine, Batch A IC50): 0.014 µM; IC50 ([1]; Plasmodium falciparum, 3D7, Erythrocyte, read-out: Activity against P. falciparum (3D7), detection 3H-Hypoxanthine, Batch A IC50): 0.0145 µM
 |  | COc1nc(N)nc2c1ncn2C[C@@H](O)CCP(=O)(OCCSC(=O)c1ccccc1)OCCSC(=O)c1ccccc1 [Compound 4, 6-O-methyl-9-[(2S)-2-hydroxy-4-bis(S-benzoyl-2-thioethyl)phosphonobutyl]-2-amino Purine] |  |  | IC50 (K562 cells): 22 µM; IC50 [1, 2]: 57 µM
> 1000 |  | Nc1ncnc2c1ncn2C[C@@H](O)CP(=O)(O)O [Compound 10, N-9-[(2R)-2-hydroxy-3-phosphonopropyl] adenine] |  |  | IC50 [1, 3]: > 1000 µM
> 1000 | > 100 | O=c1[nH]cnc2c1ncn2CC[C@@H](O)CP(=O)(O)O [Compound 20] |  |  | 
> 100 | > 100 | O=c1[nH]c(=O)c2ncn(CC[C@@H](O)CP(=O)(O)O)c2[nH]1 [Compound 19] |  |  | 
910 | > 1000 | O=c1[nH]c(=O)c2ncn(CC[C@H](O)CP(=O)(O)O)c2[nH]1 [Compound 22] |  |  | 
> 1000 | > 100 | O=c1[nH]cnc2c1ncn2CC[C@H](O)CP(=O)(O)O [Compound 21] |  |  | 
 |  | N-9-[(2S)-2-hydroxy-3-phosphonopropyl]2,6-diamino purine [Compound 14] | 650 | 595 | 
≥ 1000 |  | Nc1nc2c(ncn2C[C@@H](O)CP(=O)(O)O)c(=O)[nH]1 [Compound 11, N-9-[(2R)-2-hydroxy-3-phosphonopropyl]guanine] |  |  | IC50 [1, 3]: > 1000 µM
 | 0.183 | N=C(N)c1ccc(OCCCCCOc2ccc(C(=N)N)cc2)cc1 [Pentamidine, reference compound] |  |  | 
 |  | N-9-[(2S)-2-hydroxy-3-phosphono propyl]guanine [Compound 3] | 6 | 3.3 | Inhibition of the growth of T. gondii (Toxoplasma gondii; Conc = 5 μM): 0 % of the controls; Inhibition of the growth of T. gondii (Toxoplasma gondii; Conc = 50 μM): 18 % of the controls; IC50 (K562 cells): > 5000 µM; IC50 [1, 2]: 7.05 µM; IC50 (Babesia divergens): 3.6 µM
> 100 | 470 | O=P(O)(O)C[C@H](O)CCn1cnc2cc(Cl)c(Cl)cc21 [Compound 18] |  |  | 
 |  | N-9-[(2S)-2-hydroxy-3-phosphono propyl]guanine [Compound 12] |  |  | IC50 (Babesia divergens): > 1000 µM
 |  | N-9-[(2S)-2-hydroxy-3-phosphonopropyl] adenine [Compound 9] | > 1000 | > 1000 | 
 |  | N-9-[(2R)-2-hydroxy-3-phosphonopropyl]2,6-diamino purine [Compound 13] | 740 | 510 | 
 |  | N-9-[(2R)-2-hydroxy-3-phosphonobutyl]guanine [Compound 5] | 0.043 | 0.058 | Inhibition of the growth of T. gondii (Toxoplasma gondii; Conc = 5 μM): 42 % of the controls; Inhibition of the growth of T. gondii (Toxoplasma gondii; Conc = 50 μM): 100 % of the controls; IC50 (K562 cells): 10000 µM; IC50 [1, 2]: 0.0775 µM; IC50 (Babesia divergens): 0.48 µM
62 | > 100 | Nc1ncc2ncn(CC[C@@H](O)CP(=O)(O)O)c2n1 [Compound 16] |  |  | 
 |  | COc1nc(N)nc2c1ncn2C[C@H](O)CCP(=O)(OCCSC(=O)c1ccccc1)OCCSC(=O)c1ccccc1 [Compound 6, 6-O-methyl-9-[(2R)-2-hydroxy-4-bis(S-benzoyl-2-thioethyl)phosphonobutyl]-2-aminopurine] |  |  | IC50 (K562 cells): 20 µM; IC50 [1, 2]: 62 µM
 |  | N-9[(2R)-2-hydroxy-4-phosphonobutyl]adenine [Compound 2] | > 1000 | > 1000 | 
